“And” between values parts separate entries of the source, which are not always exact repeats. Identical values can stand only once. Non-standard residues stand in square brackets, D forms with d. Residues, ends and D or L forms follow the SMILES beside them. aThr = C[C@H](O)[C@H](N)C(=O)O; dPra = C#CC[C@@H](N)C(=O)O; dDap = NC[C@@H](N)C(=O)O
Columns and labels:
proteasome [1] = conditions: background statement; cited from earlier work
[2] = test system: T1, cytosolic proteasome in HEK293 T cells; experiment: Flow cytometry assay of proteasome stimulation in cellulo (epoxomicin probe); type: cell-based; conditions: for In-Cellulo: 10 μM stimulator, 2.5 μM epoxomicin probe, 1 hour, flow cytometry (FITC); for cellular stimulation of the proteasome (in words): 10 μM, flow cytometry
T1 construct: endogenous in cells; host or cells: HEK 293T
Excerpt: Flow cytometry allows for the study of proteasomal activity in physiologically relevant conditions and presents a high-throughput alternative to traditional gel electrophoresis and western blotting techniques. To test the assay, the covalent fluorescent-based probe was applied in HEK293 T cells to quantify proteasome stimulation of CyPPSs alone and in the presence of the known proteasome stimulator miconazole and the known proteasome inhibitor MG132. The covalent fluorescent-based probe utilized an epoxy-ketone warhead that interacts with the β5 subunit of the proteasome, forming a covalent attachment and fluorescently tagging the proteasome. The addition of the CyPPSs induces a significant shift in the intracellular fluorescence (FIG. 6). This shift validated that CyPPSs can stimulate cytosolic proteasome in cellulo. […] However, their activity was lower than what would be expected based on their in vitro activity. This may be due to incomplete cellular uptake or escape from the endosomes. […] This is likely due to a combination of effects, including the inability to stimulate the proteasome (FIGS. 2A and 2B) as well as the generally poor cell permeability and stability of linear peptides.
Confluent HEK 293T cells were seeded into sterilized 2 mL Fisherbrand Eppendorf tubes in FBS free Dulbecco's Modified Eagle Medium (DMEM) at a concentration of 300,000 cells per tube. The cells were centrifuged at 1000 g for 5 minutes. The supernatant was removed, and the cells were resuspended in 500 μL of a 10 μM stimulator solution in FBS free DMEM. Cells were spun down at 1000 g for 5 minutes, and the supernatant was again removed. Cells were then resuspended in 500 μL of a 10 μM stimulator 2.5 μM epoxomicin probe in FBS-free DMEM and incubated for 1 hour at 37° C. Cells were again centrifuged at 1000 g for 5 minutes. Supernatant was then removed, and cells were washed once with cold PBS. Cells were then resuspended in 50 μL of cold PBS and placed on ice. Cellular fluorescence was measured by collecting 50,000 events using the FITC channel of a BD Accuri C6 Flow Cytometer and analyzed using FlowJo.

20S CP [3] = target: T2, 20S CP; experiment: TAS-1 biochemical assay (20S CP stimulation); set-up: key to Emax: % of DMSO control rate (percent stimulation); key to TAS-1: % of DMSO control rate of TAS-1 hydrolysis; conditions: for EC50: dose-response curve; for EC50 / Emax: 20S CP stimulation; for Emax: maximal response of dose-response curve, in %; for TAS-1: percent stimulation of 20S CP, rate of TAS-1 hydrolysis normalized against DMSO, compounds tested at 10 μM, 5 nM 20S CP
T2 construct: purchased South Bay
Description: Each compound was initially tested at 10 μM. Each well contained […] of 11.4 μM TAS-1 solution in Tris HCl (50 mM, pH 7.4) along with 5 nM of 20 sCP (South Bay). 1 μL of the test compound, control, or DMSO was added to the desired well to obtain a final DMSO concentration of 2%, with the total volume being 50 μL. Compounds were tested in three replicates that each had technical triplicates. The fluorescence was recorded using a SynergyNeo 2, where the excitation and emission was set to 335 nm and 493 nm. The plate reader was heated to 37° C. The fluorescence was recorded every 90 seconds over a 1-hour period. A simple linear regression was performed on the data plotted against time to obtain the rate of hydrolysis of TAS-1 by the 20S CP. The data was then normalized against DMSO to get the percent stimulation.

human red blood cells = experiment: Hemolysis assay; type: cell-based; conditions: percent hemolysis, 1 hour at 37° C., table title 15 uM, method 20 μM, in %
Description: Whole human blood was purchased at BiolVT and used prior to its expiration. 100 μL blood was added to a 1.5 mL Eppendorf tub with 500 μL of sterile 0.9% NaCl. The tube was inverted multiple times to mix the solution. This mixture was centrifuged at 500 g for 7 minutes. The supernatant was extracted utilizing a pipette. The pellet was washed 2 more times. After the final wash, 800 μL of Red Blood Cell (RBC) buffer was added to the pellet to resuspend the red blood cells. 4 μL of the compounds (20 μM in DMSO, final concentration), 76 μL RBC buffer, and 40 μL resuspended red blood cells were added to a 96 U-well plate (VWR) and incubated for 1 hour at 37° C. The plate was spun at 500 g for 5 minutes. […] of the supernatant was transferred to a 96 flat-well plate. The absorbance was read at 540 nm utilizing a SpectraMax iD3 platereader. Percent hemolysis was measured from the average absorbance of the positive and negative controls. A minimum of 3 biological triplicates were performed.

20S CP [4] = test system: T2, 20S CP; experiment: Purified protein degradation assay; type: biochemical; conditions: 10 uM CyPPS, 5 nM 20S CP, 200 ng purified protein, 1 hour at 37° C.; for proteasomal degradation of α-synuclein: highly disordered protein; for proteasomal degradation of GAPDH / proteasomal degradation of lysozyme: low disordered protein
Description: Proteins were diluted to 50 ng/μL in Tris HCl (50 mM, pH 7.6). The CyPPS were diluted to 30 μM in Tris HCl, with 6% DMSO. The 20S CP (South Bay) was diluted to 15 nM with Tris HCl. Each protein was performed with a latent level, basal level, and CyPPS in triplicate. The latent level was prepared with 4 μL protein and 8 μL of 3% DMSO in Tris HCl. The basal level contained 4 μL protein, 4 μL 20S CP, and 4 μL 6% DMSO in Tris HCl. The CyPPS was performed with 4 μL protein, 4 μL 20S CP, and 4 μL 30 μM CyPPS. The samples were incubated for 1 hour at 37° C. 4 μL of 4×SDS gel loading buffer was added and heated for 5 minutes at 95° C. The samples were run on a 15-well gradient gel for SDS-PAGE, stained with Coomassie, imaged with an imaging system, and quantified with ImageJ. Analysis was done via GraphPad PRISM9.

proteasome [5] = conditions: background statement; cited from earlier work; remark: listed apart in the source

Row | Structure (SMILES) | potency as proteasome stimulator (in words) (proteasome [1]) | In-Cellulo [2] | cellular stimulation of the proteasome (in words) [2] | EC50 (20S CP [3]) | percent stimulation of the proteasome in the SNaPP library screen (20S CP [3]; library of 45 cyclic peptides, TAS-1 assay) | Emax (20S CP [3]) | TAS-1 (20S CP [3]) | Hemolysis (human red blood cells) | proteasomal degradation of α-synuclein (20S CP [4]) | proteasomal degradation of GAPDH (20S CP [4]) | proteasomal degradation of lysozyme (20S CP [4]) | 20S CP stimulatory activity (in words, SAR compared to CyPPS1) (20S CP [3]; TAS-1 assay) | activity in cell-based assays (in words) (proteasome [5])
1 | CCCCC/C=C\C/C=C\C/C=C\C/C=C\CCCC(=O)Nc1ccc(O)cc1 [AM-404] | lack of potency |  |  |  |  |  |  |  |  |  |  |  | 
2 | CC(C)C[C@H]1NC(=O)[C@H]([C@H](C)O)NC(=O)[C@@H](C)NC(=O)[C@H](CCCNC(=N)N)NC(=O)[C@@H](Cc2ccccc2)NC(=O)[C@H](Cc2ccccc2)NC1=O [CyPPS1, TLFFRA [SEQ ID NO: 1]] (cyclo(F[dF]R[dA][aThr][dL])) |  | 235.1 ± 5.5 | significant cellular stimulation of the proteasome | 6.4 µM | highest percent stimulation | 282.9 | 339.5 ± 15.7 | 13 ± 1 | greatly enhanced | little-to-no effect | little-to-no effect |  | 
3 | CC(C)C[C@H]1NC(=O)[C@H](CC(=O)O)NC(=O)[C@@H](C)NC(=O)[C@H](CCCNC(=N)N)NC(=O)[C@@H](Cc2ccccc2)NC(=O)[C@H](Cc2ccccc2)NC1=O [CyPPS8, DLFFRA [SEQ ID NO: 8]] (cyclo(D[dL]F[dF]R[dA])) |  | 161.0 ± 31.7 |  | 14.2 µM |  | 701.4 | 372.2 ± 12.1 | 0 ± 0 |  |  |  | maintained stimulatory activity | 
4 | CC(C)[C@H]1NC(=O)[C@H]([C@@H](C)O)NC(=O)[C@@H](C)NC(=O)[C@H](CCCNC(=N)N)NC(=O)[C@@H](Cc2ccccc2)NC(=O)[C@H](Cc2ccccc2)NC1=O [CyPPS13, TVFFRA [SEQ ID NO: 13]] (cyclo(T[dV]F[dF]R[dA])) |  | 173.7 ± 13.0 |  | 4.1 µM and 4 µM |  | 393 and 393.8 | 422.4 ± 18.5 | 5 ± 2 |  |  |  | retained activity | 
5 | C#CC[C@H]1NC(=O)[C@H]([C@@H](C)O)NC(=O)[C@@H](C)NC(=O)[C@H](CCCNC(=N)N)NC(=O)[C@@H](Cc2ccccc2)NC(=O)[C@H](Cc2ccccc2)NC1=O [CyPPS14, TXFFRA [SEQ ID NO: 14]] (cyclo(T[dPra]F[dF]R[dA])) |  | 231.4 ± 31.7 | significant cellular stimulation of the proteasome | 12.1 µM |  | 513.6 | 387.9 ± 2.7 | 2 ± 1 | greatly enhanced | little-to-no effect | little-to-no effect | retained stimulatory activity | 
6 | CC(C)C[C@H]1NC(=O)[C@H]([C@@H](C)O)NC(=O)[C@@H](CN)NC(=O)[C@H](CCCNC(=N)N)NC(=O)[C@@H](Cc2ccccc2)NC(=O)[C@H](Cc2ccccc2)NC1=O [CyPPS23, TLFFRX [SEQ ID NO: 23]] (cyclo(T[dL]F[dF]R[dDap])) |  | 247.3 ± 15.4 | significant cellular stimulation of the proteasome | 4 µM and 4.1 µM |  | 391 and 390.9 | 352.4 ± 39.1 | 20 ± 4 | greatly enhanced | little-to-no effect | little-to-no effect | maintained stimulatory activity | 
7 | CC(C)c1ccc2c(c1)c(SC(C)(C)C)c(CC(C)(C)C(=O)O)n2Cc1ccc(Cl)cc1 [MK-866] |  |  |  |  |  |  |  |  |  |  |  |  | inactivity in cell-based assays
8 | CN(C)CCCN1c2ccccc2Sc2ccc(Cl)cc21 [chloropromazine] |  |  |  |  |  |  |  |  |  |  |  |  | inactivity in cell-based assays
9 | Clc1ccc(COC(Cn2ccnc2)c2ccc(Cl)cc2Cl)c(Cl)c1 (centres unmarked) [miconazole] | lack of potency |  |  |  |  |  |  |  |  |  |  |  | 
10 | C[C@H]1[C@H](C)CC[C@]2(C(=O)O)CC[C@]3(C)C(=CC[C@@H]4[C@@]5(C)CC[C@H](O)C(C)(C)[C@@H]5CC[C@]43C)[C@H]12 [ursolic acid] | lack of potency |  |  |  |  |  |  |  |  |  |  |  | 
